Data reported in PubChem BioAssay (NCI).
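Each compound was tested at five concentrations against cells in 96-well plates for 48 hours. At the TGI there is no net growth.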

Columns and labels:
Experiment in all cases: inhibition of tumour cell growth, NCI panel, 48 h
SK-OV-3 ovarian = system: SK-OV-3 ovarian
NCI-H522 lung = system: NCI-H522 lung
SK-MEL-5 melanoma = system: SK-MEL-5 melanoma
SW-620 colon = system: SW-620 colon
K-562 leukemia = system: K-562 leukemia
U251 CNS = system: U251 CNS
HCT-116 colon = system: HCT-116 colon
SF-295 CNS = system: SF-295 CNS
HOP-92 NSCLC = system: HOP-92 NSCLC
CCRF-CEM leukemia = system: CCRF-CEM leukemia
MALME-3M melanoma = system: MALME-3M melanoma
MDA-N = system: MDA-N
M14 melanoma = system: M14 melanoma
SNB-75 CNS = system: SNB-75 CNS
MDA-MB-231 breast = system: MDA-MB-231 breast
EKVX NSCLC = system: EKVX NSCLC
SK-MEL-2 melanoma = system: SK-MEL-2 melanoma
T-47D breast = system: T-47D breast
HCC-2998 colon = system: HCC-2998 colon
786-0 renal = system: 786-0 renal
SR leukemia = system: SR leukemia
NCI-H23 lung = system: NCI-H23 lung
LOX IMVI melanoma = system: LOX IMVI melanoma
UO-31 renal = system: UO-31 renal
IGROV1 ovarian = system: IGROV1 ovarian
NCI/ADR-RES ovarian = system: NCI/ADR-RES ovarian
MCF7 breast = system: MCF7 breast
SNB-19 CNS = system: SNB-19 CNS
HS 578T breast = system: HS 578T breast
SF-268 CNS = system: SF-268 CNS
HCT-15 colon = system: HCT-15 colon
OVCAR-4 ovarian = system: OVCAR-4 ovarian
RPMI-8226 leukemia = system: RPMI-8226 leukemia
OVCAR-5 ovarian = system: OVCAR-5 ovarian
UACC-62 melanoma = system: UACC-62 melanoma
UACC-257 melanoma = system: UACC-257 melanoma
A498 renal = system: A498 renal
COLO 205 colon = system: COLO 205 colon
CAKI-1 renal = system: CAKI-1 renal
SF-539 CNS = system: SF-539 CNS
SK-MEL-28 melanoma = system: SK-MEL-28 melanoma
OVCAR-3 ovarian = system: OVCAR-3 ovarian
NCI-H226 lung = system: NCI-H226 lung
HT29 colon = system: HT29 colon
DU-145 prostate = system: DU-145 prostate
HL-60(TB) leukemia = system: HL-60(TB) leukemia
RXF 393 renal = system: RXF 393 renal
MOLT-4 leukemia = system: MOLT-4 leukemia
BT-549 breast = system: BT-549 breast
A549 NSCLC = system: A549 NSCLC
KM12 colon = system: KM12 colon
NCI-H460 lung = system: NCI-H460 lung
HOP-62 NSCLC = system: HOP-62 NSCLC
MDA-MB-435 = system: MDA-MB-435
TK-10 renal = system: TK-10 renal
ACHN renal = system: ACHN renal
PC-3 prostate = system: PC-3 prostate
OVCAR-8 ovarian = system: OVCAR-8 ovarian

CCC[C@H](C)[C@H]1NC(=O)[C@@H](NC(=O)[C@@H](CC(C)C)N(C)C(=O)C2CCCN2C(=O)[C@H](C)O)[C@@H](C)OC(=O)[C@H](CC(C)C)N(C)C(=O)[C@@H]2CCCN2C(=O)[C@H](CC(C)C)NC(=O)[C@@H](C)C(=O)[C@H](C(C)C)OC(=O)C[C@@H]1O (stereo partly drawn)
TGI (SK-OV-3 ovarian): 140 nM
TGI (NCI-H522 lung): 6.09 nM
TGI (SK-MEL-5 melanoma): 3.81 nM
TGI (SW-620 colon): 5.24 nM
TGI (K-562 leukemia): 3260 nM
TGI (U251 CNS): < 2.5 nM
TGI (HCT-116 colon): 3.56 nM
TGI (SF-295 CNS): 53.6 nM
TGI (HOP-92 NSCLC): 9.3 nM
TGI (CCRF-CEM leukemia): 141 nM
TGI (MALME-3M melanoma): < 2.5 nM
TGI (MDA-N): 20.5 nM
TGI (M14 melanoma): 84.8 nM
TGI (SNB-75 CNS): 24.6 nM
TGI (MDA-MB-231 breast): 8.55 nM
TGI (EKVX NSCLC): 339 nM
TGI (SK-MEL-2 melanoma): 4.68 nM
TGI (T-47D breast): 250 nM
TGI (HCC-2998 colon): 5.51 nM
TGI (786-0 renal): 15.7 nM
TGI (SR leukemia): 42.2 nM
TGI (NCI-H23 lung): 4.47 nM
TGI (LOX IMVI melanoma): 3.09 nM
TGI (UO-31 renal): 128 nM
TGI (IGROV1 ovarian): 25.6 nM
TGI (NCI/ADR-RES ovarian): 2620 nM
TGI (MCF7 breast): 250 nM
TGI (SNB-19 CNS): 60 nM
TGI (HS 578T breast): 1040 nM
TGI (SF-268 CNS): 30.3 nM
TGI (HCT-15 colon): 1440 nM
TGI (OVCAR-4 ovarian): 11.7 nM
TGI (RPMI-8226 leukemia): 76.8 nM
TGI (OVCAR-5 ovarian): 34.6 nM
TGI (UACC-62 melanoma): 2.7 nM
TGI (UACC-257 melanoma): 20.5 nM
TGI (A498 renal): 37.6 nM
TGI (COLO 205 colon): < 2.5 nM
TGI (CAKI-1 renal): 1540 nM
TGI (SF-539 CNS): 10.2 nM
TGI (SK-MEL-28 melanoma): < 2.5 nM
TGI (OVCAR-3 ovarian): 11.7 nM
TGI (NCI-H226 lung): 62.2 nM
TGI (HT29 colon): 10.2 nM
TGI (DU-145 prostate): 14.3 nM
TGI (HL-60(TB) leukemia): 108 nM
TGI (RXF 393 renal): 16 nM
TGI (MOLT-4 leukemia): 1580 nM
TGI (BT-549 breast): 25 nM
TGI (A549 NSCLC): 131 nM
TGI (KM12 colon): 1270 nM
TGI (NCI-H460 lung): 28.9 nM
TGI (HOP-62 NSCLC): 8.42 nM
TGI (MDA-MB-435): 5.19 nM
TGI (TK-10 renal): 94.6 nM
TGI (ACHN renal): 68.9 nM
TGI (PC-3 prostate): 16.9 nM
TGI (OVCAR-8 ovarian): 48.4 nM
